Laboratory results taken from PubChem BioAssay (NCI).
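Interpolation was linear, between the two tested concentrations surrounding the appropriate level; five concentrations were tested over 48 hours in 96-well plates. TGI: total growth inhibition.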

Tests used:
Assay in all cases: growth of human tumour cells (NCI), 48 h
UACC-62 melanoma = test system: UACC-62 melanoma
UO-31 renal = test system: UO-31 renal
PC-3 prostate = test system: PC-3 prostate
HCT-15 colon = test system: HCT-15 colon
T-47D breast = test system: T-47D breast
HOP-62 NSCLC = test system: HOP-62 NSCLC
786-0 renal = test system: 786-0 renal
OVCAR-3 ovarian = test system: OVCAR-3 ovarian
COLO 205 colon = test system: COLO 205 colon
NCI-H522 lung = test system: NCI-H522 lung
MDA-MB-435 = test system: MDA-MB-435
MCF7 breast = test system: MCF7 breast
LOX IMVI melanoma = test system: LOX IMVI melanoma
NCI-H226 lung = test system: NCI-H226 lung
SW-620 colon = test system: SW-620 colon
SNB-19 CNS = test system: SNB-19 CNS
EKVX NSCLC = test system: EKVX NSCLC
SK-OV-3 ovarian = test system: SK-OV-3 ovarian
SF-295 CNS = test system: SF-295 CNS
U251 CNS = test system: U251 CNS
SK-MEL-28 melanoma = test system: SK-MEL-28 melanoma
SK-MEL-5 melanoma = test system: SK-MEL-5 melanoma
NCI-H23 lung = test system: NCI-H23 lung
SN12C renal = test system: SN12C renal
M14 melanoma = test system: M14 melanoma
DU-145 prostate = test system: DU-145 prostate
SR leukemia = test system: SR leukemia
SF-268 CNS = test system: SF-268 CNS
BT-549 breast = test system: BT-549 breast
HT29 colon = test system: HT29 colon
HOP-92 NSCLC = test system: HOP-92 NSCLC
OVCAR-4 ovarian = test system: OVCAR-4 ovarian
NCI/ADR-RES ovarian = test system: NCI/ADR-RES ovarian
IGROV1 ovarian = test system: IGROV1 ovarian
SK-MEL-2 melanoma = test system: SK-MEL-2 melanoma
SNB-75 CNS = test system: SNB-75 CNS
MOLT-4 leukemia = test system: MOLT-4 leukemia
ACHN renal = test system: ACHN renal
UACC-257 melanoma = test system: UACC-257 melanoma
TK-10 renal = test system: TK-10 renal
SF-539 CNS = test system: SF-539 CNS
HCT-116 colon = test system: HCT-116 colon
MDA-MB-231 breast = test system: MDA-MB-231 breast
A498 renal = test system: A498 renal
HS 578T breast = test system: HS 578T breast
KM12 colon = test system: KM12 colon
OVCAR-8 ovarian = test system: OVCAR-8 ovarian
HCC-2998 colon = test system: HCC-2998 colon
RPMI-8226 leukemia = test system: RPMI-8226 leukemia
RXF 393 renal = test system: RXF 393 renal
OVCAR-5 ovarian = test system: OVCAR-5 ovarian
A549 NSCLC = test system: A549 NSCLC
K-562 leukemia = test system: K-562 leukemia
CAKI-1 renal = test system: CAKI-1 renal
CCRF-CEM leukemia = test system: CCRF-CEM leukemia

Measured: TGI

CCCCI(O)OS(=O)(=O)c1ccc(C)cc1
30.8 µM: LOX IMVI melanoma
73.3 µM: SR leukemia
76.3 µM: CCRF-CEM leukemia
55.4 µM: UO-31 renal
73.8 µM: IGROV1 ovarian
48.9 µM: NCI-H522 lung
> 100 µM: UACC-62 melanoma | PC-3 prostate | HCT-15 colon | T-47D breast | HOP-62 NSCLC | 786-0 renal | OVCAR-3 ovarian | COLO 205 colon | MDA-MB-435 | MCF7 breast | NCI-H226 lung | SW-620 colon | SNB-19 CNS | EKVX NSCLC | SK-OV-3 ovarian | SF-295 CNS | U251 CNS | SK-MEL-28 melanoma | SK-MEL-5 melanoma | NCI-H23 lung | SN12C renal | M14 melanoma | DU-145 prostate | SF-268 CNS | BT-549 breast | HT29 colon | HOP-92 NSCLC | OVCAR-4 ovarian | NCI/ADR-RES ovarian | SK-MEL-2 melanoma | SNB-75 CNS | MOLT-4 leukemia | ACHN renal | UACC-257 melanoma | TK-10 renal | SF-539 CNS | HCT-116 colon | MDA-MB-231 breast | A498 renal | HS 578T breast | KM12 colon | OVCAR-8 ovarian | HCC-2998 colon | RPMI-8226 leukemia | RXF 393 renal | OVCAR-5 ovarian | A549 NSCLC | K-562 leukemia | CAKI-1 renal
